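Growth conditions: 96-well plates. Treatment: test compound, 48 hours, 5 concentrations. Analysis: linear interpolation between bracketing concentrations; unreached endpoints set to highest concentration. Here, GI50 denotes the concentration required for 50% inhibition of growth. The concentration for full growth arrest is given as TGI.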
Experiments:
Test in all cases: NCI tumour cell line growth inhibition, 48 h
SW-620 colon = test system: SW-620 colon
HCC-2998 colon = test system: HCC-2998 colon
IGROV1 ovarian = test system: IGROV1 ovarian
KM12 colon = test system: KM12 colon
A549 NSCLC = test system: A549 NSCLC
HL-60(TB) leukemia = test system: HL-60(TB) leukemia
MDA-MB-231 breast = test system: MDA-MB-231 breast
NCI/ADR-RES ovarian = test system: NCI/ADR-RES ovarian
PC-3 prostate = test system: PC-3 prostate
T-47D breast = test system: T-47D breast

SMILES | TGI (SW-620 colon) [µM] | TGI (HCC-2998 colon) [µM] | TGI (IGROV1 ovarian) [µM] | TGI (KM12 colon) [µM] | TGI (A549 NSCLC) [µM] | TGI (HL-60(TB) leukemia) [µM] | TGI (MDA-MB-231 breast) [µM] | TGI (NCI/ADR-RES ovarian) [µM] | TGI (PC-3 prostate) [µM] | TGI (T-47D breast) [µM] | GI50 (SW-620 colon) [µM] | GI50 (MDA-MB-231 breast) [µM] | GI50 (HCC-2998 colon) [µM] | GI50 (NCI/ADR-RES ovarian) [µM] | GI50 (IGROV1 ovarian) [µM] | GI50 (KM12 colon) [µM] | GI50 (PC-3 prostate) [µM] | GI50 (A549 NSCLC) [µM] | GI50 (T-47D breast) [µM]
CC(C)N(C(=O)C12C3C4C5(C#N)C3C1(C#N)C5C42C#N)C(C)C (stereo not given) | > 100 | > 100 | > 100 | > 100 | > 100 | > 100 |  |  |  |  |  |  |  |  |  |  |  |  | 
N#C/C(=C\c1cc(O)cc(O)c1)C(N)=O | > 100 | > 100 | > 100 | > 100 | > 100 |  |  |  |  |  |  |  |  |  |  |  |  |  | 
O=C(O)CSc1n[nH]c(=O)[nH]c1=O | > 100 |  | > 100 | > 100 | > 100 | > 100 | > 100 | > 100 | > 100 | > 100 |  |  |  |  |  |  |  |  | 
OCC1C(OCc2ccccc2)C(OCc2ccccc2)C(OCc2ccccc2)CN1Cc1ccccc1 (stereo not given) | > 100 | > 100 | > 100 | > 100 | > 100 |  | > 100 | > 100 | 88.1 | > 100 |  |  |  |  |  |  |  |  | 
C/C(=N\N=C(N)N)C(CN1CCCCC1)C(c1ccccc1)c1c(O)c2ccccc2oc1=O (stereo not given) | > 100 | > 100 | > 100 |  | > 100 | > 100 |  |  |  |  |  |  |  |  |  |  |  |  | 
Cc1c(C)n(CCCN2CCN(C)CC2)c2ccc(Oc3cccc(C(=O)N4CCN(CCc5ccc(F)cc5)CC4)c3)cc12 | 3.28 | 3.37 | 3.16 | 3.64 | 3.62 |  | 3.43 | 3.54 | 2.61 |  | 1.77 | 1.82 | 1.81 | 1.79 | 1.57 | 1.93 | 1.06 | 1.81 | 
O=C(CN(/C=C/C(=O)C(F)(F)F)c1ccc(Cl)cc1)c1ccc(Cl)cc1 | 23.7 | 35 | 7.96 | 20.8 | 32.1 |  | 23.7 | 37 | 26.5 | 38.3 | 10.2 | 11.5 | 15.7 | 9.07 | 1.79 | 3.59 | 12.9 | 13.2 | 5.88
C=CN(C(=O)N1CCN(c2cc3c(cc2F)c(=O)c(C(=O)O)cn3C2CC2)CC1)c1nc(-c2ccc(OC)cc2)cs1 | > 100 | > 100 | > 100 | > 100 | > 100 |  |  | 9.07 | > 100 | > 100 | 4.04 |  | 5.12 | 3.07 | 3.89 | 3.12 | 3.65 | 3.39 | 3.12
NC(=O)NNC(=O)CCn1[nH]c(=O)c(Cl)c(Cl)c1=O | > 100 | > 100 | > 100 |  | > 100 | > 100 |  |  |  |  |  |  |  |  |  |  |  |  | 
CC(C)(C)C1=CC(=C(P(=O)(O)O)P(=O)(O)O)C=C(C(C)(C)C)C1=O | > 50 | > 50 | > 50 | > 50 | > 50 | > 50 |  |  |  |  |  |  |  |  |  |  |  |  | 

Source: PubChem BioAssay (NCI)
